This assay addresses Thromboxane A2 receptor (Homo sapiens, UniProt P21731).

Two molecules from BindingDB's records for doi:10.1124/jpet.104.079301 (University of Li&Eagrove;Ge, 2005) can be followed below.

pKi: −log10 of the molar value.

Thromboxane A2 receptor, sequence (P21731 as listed by the source): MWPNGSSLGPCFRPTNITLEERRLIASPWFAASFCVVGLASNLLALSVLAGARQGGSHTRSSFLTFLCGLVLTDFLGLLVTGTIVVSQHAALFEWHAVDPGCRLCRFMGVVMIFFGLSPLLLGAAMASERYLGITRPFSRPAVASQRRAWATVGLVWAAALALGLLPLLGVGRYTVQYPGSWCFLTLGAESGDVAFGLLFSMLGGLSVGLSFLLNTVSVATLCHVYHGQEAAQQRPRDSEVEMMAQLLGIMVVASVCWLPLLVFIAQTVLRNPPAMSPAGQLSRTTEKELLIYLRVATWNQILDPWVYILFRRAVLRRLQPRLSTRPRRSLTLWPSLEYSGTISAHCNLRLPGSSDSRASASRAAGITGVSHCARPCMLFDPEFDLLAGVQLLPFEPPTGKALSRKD

Take `Cc1ccc(Nc2ccc([N+](=O)[O-])cc2S(=O)(=O)NC(=O)NC(C)(C)C)cc1` [BM 573]: the pKi is 9.10.
As for `CCCCCNC(=O)NS(=O)(=O)c1cc([N+](=O)[O-])ccc1Nc1ccc(C)cc1`, the figure is 8.51.

What is called pKi is −log10 of the Ki, conventionally taken in molar units.
